This passage reports melting point and IC50 results from patent US6720424B1, “Aminobenzoic acid derivatives” (Taisho Pharmaceutical Co., Ltd., priority 1999, dated 2004).

One data set has as its target T1, KDR (Homo sapiens, UniProt P35968).
T1 construct: expressed in transfected cells; host or cells: NIH3T3
Put plainly: (125I)-VEGF binding inhibition on NIH3T3 cells in which KDR was forced to be expressed. The settings on record: KDR-expressing NIH3T3 cells, (125I)-VEGF 25 pM, 90 minutes, read-out: IC50 (concentration of 50% binding inhibition). The procedure:
According to the method described in a document (Cell Growth & Differentiation, vol. 7, pp. 213-221, 1996), the following tests were carried out.
NIH3T3 cells in which Flt-1 was forced to be expressed were seeded on a 24-well collagen-coated plate (7×10^4/well), and were cultured in Dulbecco's modified Eagle's medium (DMEM) including 10% bovine serum and 200 μg/ml of Geneticin G418, for 24 hours at 37° C. under an atmosphere of 5% carbon dioxide gas. The cells were preincubated in Buffer A (including 10 mM HEPES (N-2-hydroxyethylpiperazine-N′-2-ethanesulfonic acid) and 0.1% BSA (bovine serum albumin) in DMEM), for 30 minutes at 4° C. Subsequently, the medium was replaced with Buffer B (including 10 mM HEPES and 0.5% BSA in DMEM). A test solution prepared by dissolving each of the test compounds shown in Table 19 in dimethylsulfoxide and subsequently diluting the solution into a prescribed concentration with Buffer B, and (^125I)-VEGF (the final concentration was set to 25 pM) were added thereto. Binding reaction was carried out for 90 minutes at […]. After completion of the reaction, the cells were washed three times with ice-cooled Buffer A. Subsequently, 0.5 ml of 0.5M NaOH were added to each well, and the cells were lysed in 30 minutes at room temperature. The radioactivity of the lysed cells in each well was measured by means of a gamma counter, and a total binding quantity of (^125I)-VEGF was calculated. Nonspecific binding quantity of (^125I)-VEGF was measured by competition assay in the presence of 10 nM non-labeled VEGF. The specific binding quantity of (^125I)-VEGF was calculated from the difference between the total binding quantity of (^125I)-VEGF and nonspecific binding quantity of (^125I)-VEGF.
The binding inhibition index of the test compounds was calculated by the following equation. [formula]
From this value, a concentration of 50% binding inhibition (IC50) of the test compound was calculated.
Test on each of the test compounds shown in Table 20 and Table 21 was carried out employing NIH3T3 cells in which KDR was forced to be expressed, in the same manner as described in Experimental Example 1 described above.

Molecules are shown by their SMILES. Read-outs that look alike come from different tables or passages of the source.

T1 sequence (P35968 20-1356): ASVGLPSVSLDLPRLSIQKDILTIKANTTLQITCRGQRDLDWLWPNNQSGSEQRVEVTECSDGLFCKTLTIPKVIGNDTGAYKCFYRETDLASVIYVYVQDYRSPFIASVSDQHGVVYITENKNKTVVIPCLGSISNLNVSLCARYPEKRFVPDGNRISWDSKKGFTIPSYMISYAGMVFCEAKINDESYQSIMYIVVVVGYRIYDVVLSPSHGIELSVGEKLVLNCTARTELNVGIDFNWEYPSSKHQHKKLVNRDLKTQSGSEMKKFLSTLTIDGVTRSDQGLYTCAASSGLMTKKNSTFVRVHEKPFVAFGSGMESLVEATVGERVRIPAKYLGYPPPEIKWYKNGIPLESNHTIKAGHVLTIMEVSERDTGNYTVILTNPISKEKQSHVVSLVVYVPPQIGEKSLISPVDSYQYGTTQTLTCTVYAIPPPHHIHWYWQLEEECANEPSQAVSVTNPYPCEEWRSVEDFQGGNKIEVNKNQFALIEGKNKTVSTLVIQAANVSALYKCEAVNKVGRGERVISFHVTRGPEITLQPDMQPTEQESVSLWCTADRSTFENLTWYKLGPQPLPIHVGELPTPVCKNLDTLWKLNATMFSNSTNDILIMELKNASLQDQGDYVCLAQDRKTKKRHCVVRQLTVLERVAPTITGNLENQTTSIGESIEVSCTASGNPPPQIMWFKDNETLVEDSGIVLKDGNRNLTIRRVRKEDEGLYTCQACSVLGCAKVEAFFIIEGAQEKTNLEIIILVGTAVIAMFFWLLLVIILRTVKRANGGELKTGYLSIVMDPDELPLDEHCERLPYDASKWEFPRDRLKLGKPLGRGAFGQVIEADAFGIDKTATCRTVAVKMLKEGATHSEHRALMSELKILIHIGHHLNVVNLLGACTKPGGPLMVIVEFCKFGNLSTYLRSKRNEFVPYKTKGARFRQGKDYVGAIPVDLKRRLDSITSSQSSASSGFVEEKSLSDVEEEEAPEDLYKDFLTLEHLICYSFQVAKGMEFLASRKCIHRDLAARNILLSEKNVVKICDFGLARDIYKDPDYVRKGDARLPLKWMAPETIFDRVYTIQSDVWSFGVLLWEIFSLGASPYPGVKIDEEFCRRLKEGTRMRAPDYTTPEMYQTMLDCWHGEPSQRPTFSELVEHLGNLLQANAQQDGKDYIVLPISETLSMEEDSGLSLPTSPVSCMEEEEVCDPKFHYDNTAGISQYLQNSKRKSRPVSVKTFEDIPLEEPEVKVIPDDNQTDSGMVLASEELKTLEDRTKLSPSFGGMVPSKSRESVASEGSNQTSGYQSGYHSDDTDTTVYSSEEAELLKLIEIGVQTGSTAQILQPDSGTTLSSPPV

In general, melting point refers to the temperature of the solid-liquid transition. `CCCCCCCCCCCCCCCCCCOc1ccc(CCC(=O)Nc2ccc(Sc3ccc(C(=O)O)cc3)c(C(=O)O)c2)cc1` [Compound 41] showed a melting point of 198 to 203 °C. Further, on KDR (Table 20), the IC50 amounted to 370 nM.

Consider `CCCCCCCCCCCCCCCCCCOc1ccc(CC(=O)Nc2ccc(SCC)c(C(=O)O)c2)cc1` [Compound 143], for which the melting point was in the range of 149 to 153 °C. For the same molecule, the IC50 on KDR (Table 21) came out at 760 nM.

As to `CCCCCCCCCCCCCCCCCCOc1ccc(OCC(=O)Nc2ccc(SC)c(C(=O)O)c2)cc1` [Compound 133], the melting point was in the range of 165 to 169 °C. The IC50 on KDR (Table 21) came out at 160 nM.

For the molecule `CCCCCCCCCCCCCCCCCCOc1ccc(CCC(=O)Nc2cc(C(=O)O)ccc2SC)cc1` [Compound 145], the melting point was 216 to 219 °C. For the same molecule, the IC50 on KDR (Table 21) is 1290 nM.

As to `CCCCCCCCCCCCOc1ccc(OCCCCCCCC(=O)Nc2ccc(SC)c(C(=O)O)c2)cc1` [Compound 136], the melting point was 193 to 196 °C. The IC50 at KDR (Table 21) was 400 nM.

For the molecule `CCCCCCCCCCCCCCCCCCOc1ccc(CCC(=O)Nc2ccc(Oc3ccc(/C=C/C(=O)O)cc3)c(C(=O)O)c2)cc1` [Compound 34], the melting point was in the range of 200 to 208 °C. Besides, at KDR (Table 20), the IC50 was determined as 340 nM.

For the molecule `CCCCCCCCCCCCCCCCCCOc1ccc(CC(=O)Nc2ccc(SC)c(C(=O)O)c2)cc1` [Compound 116], the melting point fell in the range of 200 to 204 °C. Besides, the IC50 on KDR (Table 21) stood at 160 nM.

`CCCCCCCCCCCCCCCCCCOc1ccc(CCC(=O)Nc2ccc([S+](C)[O-])c(C(=O)OC)c2)cc1` (centres unmarked) [Compound 106]: the melting point is 65 to 67 °C.

Consider `CCCCCCCCCCCCCCCCOc1ccc(OCCCC(=O)Nc2ccc(SC)c(C(=O)O)c2)cc1` [Compound 134], for which the melting point was 197 to 202 °C. For the same molecule, the IC50 on KDR (Table 21) stood at 120 nM.

The molecule `CCCCCCCCCCCCCCCCCCOc1ccc(CCC(=O)Nc2cc(C(=O)O)ccc2SCC)cc1` [Compound 146] came in with a melting point of 174 to 177 °C. On KDR (Table 21), the IC50 turned out to be 630 nM.

The molecule `CCCCCCCCCCCCCCCCCCNc1ccc(CCC(=O)Nc2ccc(SC)c(C(=O)O)c2)cc1` [Compound 164] yielded a melting point of 151 to 158 °C. Also, the IC50 on KDR (Table 21) was 570 nM.

`CCCCCCCCCCCCCCCCCCOc1ccc(CCC(=O)Nc2ccc(Nc3ccc(C(=O)O)cc3)c(C(=O)O)c2)cc1` [Compound 45] yielded a melting point of 230 to 235 °C. Besides, the IC50 at KDR (Table 20) stood at 760 nM.

`CCCCCCCCCCCCCCCCCCCCOc1ccc(CCC(=O)Nc2ccc(SC)c(C(=O)O)c2)cc1` [Compound 117] returned a melting point of 211 to 213 °C. The IC50 at KDR (Table 21) came out at 320 nM.

With `CCCCCCCCCCCCCCCCCCOc1ccc(CCC(=O)Nc2ccc(Oc3cccc(CC(=O)O)c3)c(C(=O)O)c2)cc1` [Compound 32], the melting point is 163 to 167 °C. At KDR (Table 20), the IC50 stood at 930 nM.

In turn, `CCCCCCCCCCCCCCCCCCOc1ccc(CCC(=O)N(CC2CC2)c2ccc(SC)c(C(=O)O)c2)cc1` [Compound 150] registered a melting point of 126 to 128 °C. In addition, on KDR (Table 21), the IC50 stood at 590 nM.

The molecule `CCCCCCCCCCCCCCCCCCOc1ccc(CCC(=O)Nc2ccc(Nc3ccccc3C(=O)O)c(C(=O)O)c2)cc1` [Compound 47] had a melting point of 247 to 252 °C. Also, at KDR (Table 20), the IC50 came out at 940 nM.

Molecule `CCCCCCCCCCNC(=O)[C@H](CC(=O)O)NC(=O)CCCOc1ccc(CCC(=O)Nc2ccc(SC)c(C(=O)OC)c2)cc1` [Compound 105] showed a melting point of 165 to 167 °C.

`CCCCCCCCCCCCCCCCCC(=O)Nc1ccccc1CC(=O)Nc1ccc(SC)c(C(=O)O)c1` [Compound 132] displayed a melting point of 247 to 250 °C. Besides, the IC50 on KDR (Table 21) is 1660 nM.

`CCCCCCCCCCCCCCCCCCOc1ccc(CCC(=O)Nc2ccc(Oc3ccc(CCC(=O)O)cc3)c(C(=O)O)c2)cc1` [Compound 33] came in with a melting point of 156 to 160 °C. The IC50 on KDR (Table 20) was found to be 260 nM.

In turn, `CCCCCCCCCCCCCCCCCCOc1ccc(CCC(=O)Nc2ccc(SC)c(C(=O)O)c2)cc1` [Compound 115] gave a melting point of 185 to 194 °C. Besides, the IC50 on KDR (Table 21) worked out at 150 nM.

`CCCCCCCCCCCCCCCCCCOc1ccc(NCC(=O)Nc2ccc(SC)c(C(=O)O)c2)cc1` [Compound 163] had a melting point of 163.5 to 169.5 °C. Besides, the IC50 at KDR (Table 21) worked out at 410 nM.

`CCCCCCCCCCCCCCCCOc1ccc(CC(=O)Nc2ccc(SC)c(C(=O)O)c2)cc1` [Compound 127] came in with a melting point of 200 to 205 °C. Besides, the IC50 at KDR (Table 21) amounted to 1160 nM.

As to `CCCCCCCCCCCCCCCCCC(=O)Nc1ccc(CC(=O)Nc2ccc(SC)c(C(=O)O)c2)cc1` [Compound 130], the melting point lay within 214 to 217 °C. The IC50 at KDR (Table 21) came to 230 nM.

Take `CCCCCCCCCCCCCCCCCCOc1ccc(CC(=O)N(C)c2ccc(SCCO)c(C(=O)OC)c2)cc1` [Compound 109]: the melting point was in the range of 92.5 to 94 °C.

On to `CCCCCCCCCCCCCCCCCCOc1ccc(CCC(=O)Nc2cc(C(=O)O)ccc2SCc2ccccc2)cc1` [Compound 148], for which the melting point lay within 178 to 181 °C. Further, the IC50 at KDR (Table 21) is 930 nM.

For the molecule `CCCCCCCCCCCCCCCCCCOc1ccc(C=CC(=O)N(C)c2ccc(SC)c(C(=O)O)c2)cc1` [Compound 153], the melting point fell in the range of 156 to 157 °C. Besides, the IC50 on KDR (Table 21) is 250 nM.

Take `CCCCCCCCCCCCCCCCCCOc1ccc(CCC(=O)N(Cc2ccccc2)c2ccc(SC)c(C(=O)O)c2)cc1` [Compound 151]: the melting point was 127 to 129 °C. Further, the IC50 on KDR (Table 21) was determined as 800 nM.

`CCCCCCCCCCCCCCCCCCOc1ccc(CCC(=O)Nc2cc(C(=O)O)ccc2Oc2ccc3cc(C(=O)O)ccc3c2)cc1` [Compound 38] had a melting point of 214 to 219 °C. Further, on KDR (Table 20), the IC50 came to 710 nM.

On to `CCCCCCCCCCCCCCOc1ccc(OCCCCCC(=O)Nc2ccc(SC)c(C(=O)O)c2)cc1` [Compound 135], for which the melting point lay within 199 to 202 °C. For the same molecule, the IC50 on KDR (Table 21) amounted to 450 nM.

For `CCCCCCCCCCCCCCCCCCOc1ccc(CC(=O)N(C)c2ccc(SCCC)c(C(=O)O)c2)cc1` [Compound 155], the melting point lay within 76 to 80 °C. At KDR (Table 21), the IC50 was 670 nM.

`CCCCCCCCCCCCCCCCCCOc1ccc(CCC(=O)Nc2ccc(Nc3cccc(C(=O)O)c3)c(C(=O)O)c2)cc1` [Compound 46] yielded a melting point of 235 to 240 °C. In addition, the IC50 at KDR (Table 20) worked out at 400 nM.

Consider `CCCCCCCCCCCCCCCCCCCCCCOc1ccc(CCC(=O)Nc2ccc(SC)c(C(=O)O)c2)cc1` [Compound 118], for which the melting point was 209 to 212 °C. The IC50 at KDR (Table 21) amounted to 1580 nM.

`CCCCCCCCCCCCCCCCCCOc1ccc(CCC(=O)Nc2cc(C(=O)O)ccc2Oc2cccc(C(=O)O)c2)cc1` [Compound 36] showed a melting point of 212 to 216 °C. In addition, the IC50 at KDR (Table 20) was 1270 nM.

Regarding `CCCCCCCCCCCCCCCCCCOc1ccc(CCC(=O)Nc2ccc(Sc3cccc(C(=O)O)c3)c(C(=O)O)c2)cc1` [Compound 42], the melting point lay in the range of 194 to 198 °C. Further, on KDR (Table 20), the IC50 turned out to be 450 nM.

Turning to `CCCCCCCCCCCCCCCCCCOc1ccc(CCC(=O)N(CC(=O)O)c2ccc(SC)c(C(=O)OC)c2)cc1` [Compound 102], the melting point fell in the range of 102 to 106 °C.

Take `CCCCCCCCCCOc1ccc(OCCCCCCCCCC(=O)Nc2ccc(SC)c(C(=O)O)c2)cc1` [Compound 137]: the melting point was 185 to 188 °C. In addition, at KDR (Table 21), the IC50 was 460 nM.

In turn, `CCCCCCCCCCCCCCCCCCOc1ccc(CCC(=O)N(C)c2ccc(SC)c(C(=O)OC)c2)cc1` [Compound 90] gave a melting point of 65.5 to 66.5 °C.

`CCCCCCCCCCCCCCCCCCOc1ccc(CCC(=O)Nc2cc(C(=O)O)ccc2SCCC)cc1` [Compound 147] displayed a melting point of 150 to 152 °C. Moreover, the IC50 on KDR (Table 21) amounted to 570 nM.

For the molecule `CCCCCCCCCCCCCCCCCCOc1ccc(CC(=O)N(C)c2ccc(SCC)c(C(=O)O)c2)cc1` [Compound 154], the melting point lay in the range of 87 to 88.5 °C. For the same molecule, the IC50 at KDR (Table 21) is 500 nM.

Turning to `CCCCCCCCCCCCCCCCCC(=O)Nc1ccc(CCC(=O)Nc2ccc(SC)c(C(=O)O)c2)cc1` [Compound 120], the melting point lay within 257 to 260 °C. For the same molecule, the IC50 on KDR (Table 21) was determined as 440 nM.

Take `CCCCCCCCCCCCCCCCCCOc1ccc(CCC(=O)N(C)c2ccc(Oc3ccc(C(=O)OC)cc3)c(C(=O)OC)c2)cc1` [Compound 22]: the melting point was 60 to 62 °C.

The molecule `CCCCCCCCCCCCCCCCCCOc1ccc(CC(=O)N(C)c2ccc(SC)c(C(=O)OC)c2)cc1` [Compound 91] returned a melting point of 60 to 69 °C.
